Results: patent publication US7514417B2 (CV Therapeutics, Inc., priority 2005, dated 2009)

target: T1, A1 adenosine receptor (Mesocricetus auratus, UniProt A0A1U8BVR4); assay: Competitive radioligand binding assay, A1 binding affinity, DDT1 cell membranes; set-up: species or system hamster; details: membranes of DDT cells, tritiated radioligand (3H-CPA) 1.5 nM, 23° C. 90 minutes
T1 construct: A1 adenosine receptor sites on the membranes of DDT cells; endogenous in cells; host or cells: DDT cells (DDT1, hamster vas deferens smooth muscle cell line), membrane preparation
T1 sequence (A0A1U8BVR4 1-326): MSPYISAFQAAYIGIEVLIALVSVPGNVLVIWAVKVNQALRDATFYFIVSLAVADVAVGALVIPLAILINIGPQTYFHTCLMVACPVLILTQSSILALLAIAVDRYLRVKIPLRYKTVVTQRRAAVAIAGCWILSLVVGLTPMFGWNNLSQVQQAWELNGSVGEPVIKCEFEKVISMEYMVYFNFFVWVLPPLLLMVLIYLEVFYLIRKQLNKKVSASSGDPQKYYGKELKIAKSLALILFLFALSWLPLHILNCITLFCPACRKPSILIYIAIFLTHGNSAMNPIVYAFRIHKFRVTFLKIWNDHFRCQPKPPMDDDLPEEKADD
Protocol: DDT cells (hamster vas deferens smooth muscle cell line) were grown as monolayers in petri dishes using Dulbecco's Modified Eagle's Medium (DMEM) containing 2.5 μg mL^−1 amphotericin B, 100 U mL^−1 penicillin G, 0.1 mg mL^−1 streptomycin sulfate and 5% fetal bovine serum in a humidified atmosphere of 95% air and 5% CO2. Cells were subcultured twice weekly by dispersion in Hank's Balanced Salt Solution (HBSS) without the divalent cations and containing 1 mM EDTA. The cells were then seeded in growth medium at a density of 1.2×10^5 cells per plate and experiments were performed 4 days later at approximately one day preconfluence.
Attached cells were washed twice with HBSS (2×10 mL), scraped free of the plate with the aid of a rubber policeman in 5 mL of 50 mM Tris-HCl buffer pH 7.4 at 4° C. and the suspension was homogenized for 10 s. The suspension was then centrifuged at 27,000×g for 10 min. The pellet was resuspended in homogenization buffer by vortexing and centrifuged again as described above. The final pellet was resuspended in 1 vol of 50 mM Tris-HCl buffer pH 7.4 containing 5 mM MgCl2 for A1 adenosine receptor assays. For the [^35S]GTPγS binding assay the final pellet was resuspended in 50 mM Tris-HCl pH 7.4 containing 5 mM MgCl2, 100 mM NaCl and 1 mM dithiothreitol. This membrane suspension was then placed in liquid nitrogen for 10 min and stored at −80° C. Aliquots of the membrane suspension were later thawed and used for assays. The protein content was determined with a Bradford™ Assay Kit using bovine serum albumin as standard.
Briefly, 50-70 ug of membrane protein were incubated in a mixture containing 2U/ml adenosine deaminase and 10 μM GTP-γS in 50 mM Tris-HCl buffer, pH 7.4, with 1 mM EDTA in glass tubes. Stock solutions of the compounds of the invention were serially diluted (10^−10M to 10^−4M) in Tris buffer and added to the incubation mixture. […] After incubation at 23° C. 90 minutes, the reaction was stopped by filtration on a Brandel MR24 cell harvester and washing with ice-cold Tris-EDTA buffer (three times, approximate volume 10 ml/wash) over Whatman GF/B filters (presoaked for 1 h in 0.3% polyethylenimine to reduce non-specific binding). Filters were transferred to scintillation vials and 5 ml of Scintisafe (VWR, Brisbane, Calif.) was added. The amount of radioactivity retained on the filters was determined by liquid scintillation spectrometry.

Compound | Ki [µM]
CCNC(=O)[C@H]1O[C@@H](n2cnc3c(N[C@@H]4CCOC4)nc(-n4cc(-c5ccc6ccccc6n5)cn4)nc32)[C@H](O)[C@@H]1O | 0.074
Cc1cc(C)n(-c2nc(NC3CCCC3)c3ncn(C4O[C@H](CO)[C@@H](O)[C@H]4O)c3n2)n1 (some centres unmarked) [listing 1 of 2 here] | 0.134
CCNC(=O)[C@H]1O[C@@H](n2cnc3c(N[C@@H]4CCOC4)nc(-n4cc(-c5ccncc5)cn4)nc32)[C@H](O)[C@@H]1O | 1.06
Cc1ccc(-c2cnn(-c3nc(N[C@@H]4CCOC4)c4ncn([C@@H]5O[C@H](C(=O)O)[C@@H](O)[C@H]5O)c4n3)c2)cc1 | 0.121
Cc1cc(C)n(-c2nc(NC3CCCC3)c3ncn(C4O[C@H](CO)[C@@H](O)[C@H]4O)c3n2)n1 (some centres unmarked) [listing 2 of 2 here] | 0.094
CCOC(=O)c1cnn(-c2nc(NC3CCCC3)c3ncn([C@@H]4O[C@H](CO)[C@@H](O)[C@H]4O)c3n2)c1 (single isomer, unassigned) [XXV] | 0.0009
O=C(NCc1cc(F)cc(C(F)(F)F)c1)c1cnn(-c2nc(N[C@@H]3CCOC3)c3ncn([C@@H]4O[C@H](CO)C(O)C4O)c3n2)c1 (stereo in doubt) [XXI, (1-{6-[((3R)oxolan-3-yl)amino]-9-[(3S,2R,4R,5R)-3,4-dihydroxy-5-(hydroxymethyl)oxolan-2-yl]purin-2-yl}pyrazol-4-yl)-N-{[5-fluoro-3-(trifluoromethyl)phenyl]methyl}carboxamide] | 0.056
CCOC(=O)c1cnn(-c2nc(NC3CCCC3)c3ncn([C@@H]4O[C@H](CO)[C@@H](O)[C@H]4O)c3n2)c1 [III, ethyl 1-{9-[(4S,3R,5R)-3,4-dihydroxy-5-(hydroxymethyl)oxolan-2-yl]-6-(cyclopentylamino)purin-2-yl}pyrazole-4-carboxylate] | 0.036
CCNC(=O)[C@H]1O[C@@H](n2cnc3c(NC4CCOC4)nc(-n4cc(-c5ccc(C)cc5)cn4)nc32)[C@H](O)[C@@H]1O (some centres unmarked) [I] | 2
CCNC(=O)c1cnn(-c2nc(N[C@@H]3CCOC3)c3ncn([C@@H]4O[C@H](CO)[C@@H](O)[C@H]4O)c3n2)c1 [XI, (1-{6-[((3R)oxolan-3-yl)amino]-9-[(4S,2R,3R,5R)-3,4-dihydroxy-5-(hydroxymethyl)oxolan-2-yl]purin-2-yl}pyrazol-4-yl)-N-ethylcarboxamide] | 0.01
CCOC(=O)c1cnn(-c2nc(NCc3ccccc3)c3ncn([C@@H]4O[C@H](CO)[C@@H](O)[C@H]4O)c3n2)c1 [XII, ethyl 1-{9-[(4S,2R,3R,5R)-3,4-dihydroxy-5-(hydroxymethyl)oxolan-2-yl]-6-[benzylamino]purin-2-yl}pyrazole-4-carboxylate] | 1.72
CCCNC(=O)c1cnn(-c2nc(N[C@@H]3CCOC3)c3ncn([C@@H]4O[C@H](CO)[C@@H](O)[C@H]4O)c3n2)c1 [XIII, (1-{6-[((3R)oxolan-3-yl)amino]-9-[(4S,2R,3R,5R)-3,4-dihydroxy-5-(hydroxymethyl)oxolan-2-yl]purin-2-yl}pyrazol-4-yl)-N-propylcarboxamide] | 0.01
CCCNC(=O)c1cnn(-c2nc(NCc3ccccc3)c3ncn([C@@H]4O[C@H](CO)[C@@H](O)[C@H]4O)c3n2)c1 [XIV, (1-{9-[(4S,2R,3R,5R)-3,4-dihydroxy-5-(hydroxymethyl)oxolan-2-yl]-6-[benzylamino]purin-2-yl}pyrazol-4-yl)-N-propylcarboxamide] | 1.09
O=C(NCc1ccc(F)cc1)c1cnn(-c2nc(N[C@@H]3CCOC3)c3ncn([C@@H]4O[C@H](CO)[C@@H](O)[C@H]4O)c3n2)c1 [XIX, (1-{6-[((3R)oxolan-3-yl)amino]-9-[(4S,2R,3R,5R)-3,4-dihydroxy-5-(hydroxymethyl)oxolan-2-yl]purin-2-yl}pyrazol-4-yl)-N-[(4-fluorophenyl)methyl] carboxamide] | 0.043
CCNC(=O)c1cnn(-c2nc(NCc3ccccc3)c3ncn([C@@H]4O[C@H](CO)[C@@H](O)[C@H]4O)c3n2)c1 [XV, (1-{9-[(4S,2R,3R,5R)-3,4-dihydroxy-5-(hydroxymethyl)oxolan-2-yl]-6-[benzylamino]purin-2-yl}pyrazol-4-yl)-N-ethylcarboxamide] | 1.53
CNC(=O)c1cnn(-c2nc(NCc3ccccc3)c3ncn([C@@H]4O[C@H](CO)[C@@H](O)[C@H]4O)c3n2)c1 [XVI, (1-{9-[(4S,2R,3R,5R)-3,4-dihydroxy-5-(hydroxymethyl)oxolan-2-yl]-6-[benzylamino]purin-2-yl}pyrazol-4-yl)-N-methylcarboxamide] | 1.79
O=C(O)c1ccc(-c2cnn(-c3nc(N[C@@H]4CCOC4)c4ncn(C5OC(CO)C(O)C5O)c4n3)c2)nc1 (stereo partly drawn) [XVII, 6-(1-{6-[((3R)oxolan-3-yl)amino]-9-[3,4-dihydroxy-5-(hydroxymethyl)oxolan-2-yl]purin-2-yl}pyrazol-4-yl)pyridine-3-carboxylic acid] | 0.064
O=C(NCc1ccc(Cl)cc1)c1cnn(-c2nc(N[C@@H]3CCOC3)c3ncn([C@@H]4O[C@H](CO)[C@@H](O)[C@H]4O)c3n2)c1 [XVIII, (1-{6-[((3R)oxolan-3-yl)amino]-9-[(4S,2R,3R,5R)-3,4-dihydroxy-5-(hydroxymethyl)oxolan-2-yl]purin-2-yl}pyrazol-4-yl)-N-[(4-chlorophenyl)methyl]carboxamide] | 0.027
O=C(NCc1ccccc1)c1cnn(-c2nc(N[C@@H]3CCOC3)c3ncn([C@@H]4O[C@H](CO)[C@@H](O)[C@H]4O)c3n2)c1 [XX, (1-{6-[((3R)oxolan-3-yl)amino]-9-[(4S,2R,3R,5R)-3,4-dihydroxy-5-(hydroxymethyl)oxolan-2-yl]purin-2-yl}pyrazol-4-yl)-N-benzylcarboxamide] | 0.001
COC(=O)c1ccc(CNC(=O)c2cnn(-c3nc(N[C@@H]4CCOC4)c4ncn([C@@H]5O[C@H](CO)[C@@H](O)[C@H]5O)c4n3)c2)cc1 [XXIX, methyl 4-{[(1-{6-[((3R)oxolan-3-yl)amino]-9-[(4S,2R,3R,5R)-3,4-dihydroxy-5-(hydroxymethyl)oxolan-2-yl]purin-2-yl}pyrazol-4-yl)carbonylamino]methyl}benzoate] | 0.006
O=C(O)c1ccc(CNC(=O)c2cnn(-c3nc(N[C@@H]4CCOC4)c4ncn([C@@H]5O[C@H](CO)[C@@H](O)[C@H]5O)c4n3)c2)cc1 [XXX, 4-{[(1-{6-[((3R)oxolan-3-yl)amino]-9-[(4S,2R,3R,5R)-3,4-dihydroxy-5-(hydroxymethyl)oxolan-2-yl]purin-2-yl}pyrazol-4-yl)carbonylamino]methyl}benzoic acid] | 0.008
O=C(O)c1cnn(-c2nc(NC3CCCC3)c3ncn([C@@H]4O[C@H](CO)[C@@H](O)[C@H]4O)c3n2)c1 [XXXI, 1-{9-[(4S,3R,5R)-3,4-dihydroxy-5-(hydroxymethyl)oxolan-2-yl]-6-(cyclopentylamino)purin-2-yl}pyrazole-4-carboxylic acid] | 0.008
NC(=O)c1cnn(-c2nc(NC3CCCC3)c3ncn([C@@H]4O[C@H](CO)[C@@H](O)[C@H]4O)c3n2)c1 [XXXII, 1-(9-[(4S,3R,5R)-3,4-dihydroxy-5-(hydroxymethyl)oxolan-2-yl]-6-(cyclopentylamino)purin-2-yl}pyrazole-4-carboxamide] | 0.00059
CCOC(=O)c1cnn(-c2nc(NC3CC4CCC3C4)c3ncn(C4O[C@H](CO)[C@@H](O)[C@H]4O)c3n2)c1 (stereo partly drawn) [XXXIII, ethyl 1-{9-[(4S,3R,5R)-3,4-dihydroxy-5-(hydroxymethyl)oxolan-2-yl]-6-(bicyclo[2.2.1]hept-2-ylamino)purin-2-yl}pyrazole-4-carboxylate] | 0.002
O=C(O)c1cnn(-c2nc(NC3CC4CCC3C4)c3ncn(C4O[C@H](CO)[C@@H](O)[C@H]4O)c3n2)c1 (stereo partly drawn) [XXXIV, 1-{9-[(4S,3R,5R)-3,4-dihydroxy-5-(hydroxymethyl)oxolan-2-yl]-6-(bicyclo[2.2.1]hept-2-ylamino)purin-2-yl}pyrazole-4-carboxylic acid] | 0.001
CNC(=O)c1cnn(-c2nc(NC3CCCC3)c3ncn([C@@H]4O[C@H](CO)[C@@H](O)[C@H]4O)c3n2)c1 [XXXV, (1-{9-[(4S,3R,5R)-3,4-dihydroxy-5-(hydroxymethyl)oxolan-2-yl]-6-(cyclopentylamino)purin-2-yl}pyrazol-4-yl)-N-methylcarboxamide] | 0.001
